Reference: patent publication US8992985B2, “Core-shell magnetic particles and related methods” (priority 2010, dated 2015)
Read-outs that look alike come from different tables or passages of the source.

Key:
[1] = in human blood; cited from earlier work
[2] = in aquatic organisms; cited from earlier work
[3] = system: Escherichia coli ATCC 11229; test: Broth microdilution MIC assay; type: cell-based; conditions: E. coli (−); LB broth, 37° C
Text: (§1) The following microorganisms were used (American Type Culture Collection (ATCC), Manassas, Vir., or La Colección Española de Cultivos Tipo (CECT), Valencia, Spain): Gram-positive bacteria Staphylococcus aureus ATCC 25923 and ATCC 6538, Staphylococcus epidermidis CECT 4184, Lactococcus lactis ATCC 7963, Streptococcus phocae ATCC51973, Lactococcus garvieae ATCC2155, Gram-negative bacteria Pseudomonas aeruginosa CECT 110 and ATCC 15692, Escherichia coli ATCC 11229, and Salmonella enterica ATCC 13311. The bacteria were grown at 37° C. in Luria-Bertani (LB) broth (Sigma-Aldrich Chemical Co.) (pH 7.3), which was also used for dilutions. The […] inhibitory concentration (MIC) values of PHMBG and the particles were determined in vitro using a broth microdilution assay. The polymer or nanoparticles were dissolved or dispersed, respectively, with brief sonication; into small stock samples of sterile deionized water (10 mL, 3 mg/mL). Serial dilutions between 5 and 300 mg/L final concentration in the liquid medium were dispensed into sterile 96-well polystyrene culture Corning® Costar® cell plates (Sigma-Aldrich Chemical Co.). The diluted samples were inoculated with a suspension of the test bacterium on the liquid medium to a final concentration of approximately 10^4 cfu/mL. The MIC was defined as the lowest concentration of PHMBG polymer, PHMBG-PEI-M or PHMBG-M/SiO2 particles that inhibited bacterial growth after […] at 37° C. Measurements were conducted in triplicate. The precision of the MIC values was limited by the dilution factor and was estimated to be ±5 mg/L, Negative control experiments were conducted with the dilutions without bactericidal additives and no reduction in bacterial counts after 24 h was observed.
(§2) For testing the antiseptic properties of the core-shell magnetic nanoparticles of the invention, five Gram-positive and three Gram-negative bacteria were chosen to represent a wide range of waterborne microorganisms, all of which are pathogenic with the exception of L. lactis, which is extensively used in buttermilk and cheese production. Gram-positive S. aureus and S. epidermidis are well-known human pathogens; S. phocae is a fish and seal pathogen; and L. garvieae causes septicemic infections of fish and is the main risk factor for the Mediterranean European trout industry. […] Both PHMBG-M/SiO2 (t) and PHMBG-M/SiO2 (s) particle species were tested, as well as PHMBG solutions and PHMBG-PEI-M particle suspensions.

[4] = system: Lactococcus lactis ATCC 7963; test: Broth microdilution MIC assay; type: cell-based; conditions: L. lactis (+); LB broth, 37° C
Text: as §1, §2

Pseudomonas aeruginosa = test: Broth microdilution MIC assay; type: cell-based; conditions: P. aeruginosa (−); LB broth, 37° C
Text: as §1, §2

[5] = system: Staphylococcus epidermidis CECT 4184; test: Broth microdilution MIC assay; type: cell-based; conditions: S. epidermidis (+); LB broth, 37° C
Text: as §1, §2

[6] = system: Lactococcus garvieae ATCC2155; test: Broth microdilution MIC assay; type: cell-based; conditions: L. garvieae (+); LB broth, 37° C
Text: as §1, §2

Staphylococcus aureus = test: Broth microdilution MIC assay; type: cell-based; conditions: S. aureus (+); LB broth, 37° C
Text: as §1, §2

[7] = system: Streptococcus phocae ATCC51973; test: Broth microdilution MIC assay; type: cell-based; conditions: S. phocae (+); LB broth, 37° C
Text: as §1, §2

[8] = system: Salmonella enterica ATCC 13311; test: Broth microdilution MIC assay; type: cell-based; conditions: S. enterica (−); LB broth, 37° C
Text: as §1, §2

Row | Compound | half-life [1] | half-life [2] | Minimum inhibitory concentrations (MIC) [3] [mg/L] | Minimum inhibitory concentrations (MIC) [4] [mg/L] | Minimum inhibitory concentrations (MIC) (Pseudomonas aeruginosa) [mg/L] | Minimum inhibitory concentrations (MIC) [5] [mg/L] | Minimum inhibitory concentrations (MIC) [6] [mg/L] | Minimum inhibitory concentrations (MIC) (Staphylococcus aureus) [mg/L] | Minimum inhibitory concentrations (MIC) [7] [mg/L] | Minimum inhibitory concentrations (MIC) [8] [mg/L]
1 | [CH3][Hg][Cl] [methylmercury] | about 50 days | about 72 days | – | – | – | – | – | – | – | –
2 | Poly(hexamethylene biguanide) [PHMBG] | – | – | 5 | 20 | 30 | 0.5 | 40 | 5 | 1.6 | 110
